Results from patent US9802899B2, “Heterocyclic compounds as pesticides” (BAYER CROPSCIENCE AG, priority 2012, dated 2017).

Legend:
[1] = Determination of the log P values by HPLC (formic acid method); type: physicochemical; settings: reversed-phase column (C 18), acidic range (pH 3.4), 55° C.
Experimental: 1) Description of Method for Determination of the Log P Values (Formic Acid Method)
Eluents for determination in the acidic range (pH 3.4):
Eluent A: acetonitrile+1 ml of formic acid/liter. Eluent B: water+0.9 ml of formic acid/liter.
The lambda max values were determined in the maxima of the chromatographic signals using the UV spectra from 200 nm to 400 nm.

[2] = system: Phaedon cochleariae; assay: Phaedon cochleariae spray test (PHAECO); type: in vivo; settings: foliar, 168 h, application rate 500 g/ha, larvae on Chinese cabbage leaf discs, after 7 days, read-out: efficacy
Experimental: Phaedon cochleariae Spray Test (PHAECO)
Solvents: 78.0 parts by weight of acetone • • 1.5 parts by weight of dimethylformamide
Emulsifier: 0.5 part by weight of alkylaryl polyglycol ether
To produce a suitable preparation of active compound, 1 part by weight of active compound is mixed with the stated amounts of solvents and emulsifier, and the concentrate is diluted with emulsifier-containing water to the desired concentration.
After 7 days, the efficacy in % is determined. 100% means that all of the beetle larvae have been killed; 0% means that none of the beetle larvae have been killed.

[3] = system: Boophilus microplus; assay: Boophilus microplus test (DIP); type: in vivo; settings: application rate 100 ppm, after 7 days by laying of fertile eggs, 100% = no fertile eggs
Experimental: Boophilus microplus Test (DIP)
Test animals: adult engorged Boophilus microplus females of the SP-resistant Parkhurst strain
(§1) Solvent: dimethyl sulphoxide
10 mg of active compound are dissolved in 0.5 ml of dimethyl sulphoxide. For the purpose of preparing a suitable formulation, the active compound solution is diluted with water to the concentration desired in each case.
This active compound preparation is pipetted into tubes. 8-10 ticks are transferred into a further tube with holes. The tube is immersed into the active compound formulation, and all ticks are completely wetted. After the liquid has run out, the ticks are transferred onto filter discs in plastic dishes and stored in a climate-controlled room.
The activity is assessed after 7 days by laying of fertile eggs. Eggs whose fertility is not visible from the outside are stored in a climate-controlled cabinet until the larvae hatch. An efficacy of 100% means that none of the ticks has laid any fertile eggs.

[4] = system: Cooperia curticei; assay: Cooperia curticei test (COOPCU); type: in vivo; settings: nematode larvae, after 5 days
Experimental: Cooperia curticei Test (COOPCU)
as §1
To produce a suitable preparation of active compound, 10 mg of active compound are mixed with 0.5 ml of dimethyl sulphoxide, and the concentrate is diluted with Ringer solution to the desired concentration.
Vessels containing the active compound preparation of the desired concentration are populated with about 40 nematode larvae (Cooperia curticei).
After 5 days, the kill in % is determined 100% means that all of the larvae have been killed; 0% means that none of the larvae have been killed.

[5] = reversed-phase HPLC column (C 18)

SMILES	log P [1]	other results
Cc1ccccc1-n1ccc(NC(=O)c2ccccc2Br)n1 [Compound I-1-1, 2-BromoN-[1-(2-methylphenyl)-1H-pyrazol-3-yl]benzamide]		chromatographic logP [1, 5]: 2.79; pest or weed control at 500 g/ha [2]: 100%
O=C(Nc1ccn(-c2ccccc2C(F)(F)F)n1)c1ccccc1I [Compound I-1-5]	3.05	efficacy [3]: 100%
O=C(Nc1nn(-c2ccccc2Cl)cc1Cl)c1ccccc1C(F)(F)F [Compound I-1-15, N-[4-Chloro-1-(2-chlorophenyl)-1H-pyrazol-3-yl]-2-(trifluoromethyl)benzamide]		chromatographic logP [1, 5]: 3.06; pest or weed control at 500 g/ha [2]: 100%
O=C(Nc1nn(-c2ccccc2Cl)cc1Br)c1ccccc1C(F)(F)F [Compound I-1-16, N-[4-Bromo-1-(2-chlorophenyl)-1H-pyrazol-3-yl]-2-(trifluoromethyl)benzamide]		chromatographic logP [1, 5]: 3.11; pest or weed control at 500 g/ha [2]: 83%
CN(C(=O)c1ccccc1Cl)c1ccn(-c2ccccc2Cl)n1 [Compound I-1-21, 2-Chloro-N-[1-(2-chlorophenyl)-1H-pyrazol-3-yl]-N-methylbenzamide]		chromatographic logP [1, 5]: 3.14; pest or weed control at 500 g/ha [2]: 100%
CCN(C(=O)c1ccccc1Cl)c1ccn(-c2ccccc2Cl)n1 [Compound I-1-22]	3.41	efficacy (kill) ([4]; application rate 100 ppm): 80%
O=C(Nc1ccn(-c2ccccc2Cl)n1)c1ccccc1Br [Compound I-1-32]	2.83	efficacy [3]: 80%
Cc1cccc(C)c1-n1ccc(NC(=O)c2ccccc2Cl)n1 [Compound I-1-61, 2-Chloro-N-[1-(2,6-dimethylphenyl)-1H-pyrazol-3-yl]benzamide]		chromatographic logP [1, 5]: 2.63; pest or weed control at 500 g/ha [2]: 100%
Cn1nc(C(F)(F)F)c(C(=O)Nc2ccn(-c3cc(F)ccc3F)n2)c1F [Compound I-1-72, N-[1-(2,5-Difluorophenyl)-1H-pyrazol-3-yl]-5-fluoro-1-methyl-3-(trifluoromethyl)-1H-pyrazole-4-carboxamide]		chromatographic logP [1, 5]: 2.93; pest or weed control at 500 g/ha [2]: 100%
O=C(Nc1ccn(-c2c(Cl)cccc2Cl)n1)c1ccccc1Cl [Compound I-1-121]	2.84	efficacy (kill) ([4]; application rate 100 ppm): 80%
O=C(Nc1ccn(-c2c(Cl)cccc2Cl)n1)c1ccccc1I [Compound I-1-123, N-[1-(2,6-Dichlorophenyl)-1H-pyrazol-3-yl]-2-iodobenzamide]		chromatographic logP [1, 5]: 3.04; pest or weed control at 500 g/ha [2]: 100%
O=C(Nc1ccn(-c2ccc(F)cc2F)n1)c1ccccc1Cl [Compound I-1-211]	2.91	efficacy (kill) ([4]; application rate 100 ppm): 80%
O=C(Nc1ccn(-c2c(F)cccc2F)n1)c1sccc1C(F)(F)F [Compound I-1-284]	2.82	efficacy (kill) ([4]; application rate 4 ppm): 80%
O=C(Nc1ccn(-c2cccc(Cl)c2F)n1)c1ccccc1C(F)(F)F [Compound I-1-555]	3.37	efficacy (kill) ([4]; application rate 4 ppm): 90%
O=C(Nc1cnn(-c2ccccc2Br)n1)c1ccccc1Cl [Compound I-2-7]	2.93	efficacy (kill) ([4]; application rate 4 ppm): 80%
Cn1cc(C(=O)Nc2cnn(-c3c(F)cccc3F)n2)c(C(F)F)n1 [Compound I-2-78]	2.22	
O=C(Nc1cnn(-c2c(F)cccc2F)n1)c1nccnc1C(F)(F)F [Compound I-2-79]	2.60	
O=C(Nc1cnn(-c2c(F)cccc2F)n1)c1ncccc1C(F)(F)F [Compound I-2-80]	2.78	
O=C(Nc1cnn(-c2c(F)cccc2F)n1)c1ccncc1C(F)(F)F [Compound I-2-81]	2.36	
O=C(Nc1cnn(-c2c(F)cccc2F)n1)c1sccc1C(F)(F)F [Compound I-2-82]	2.95	
O=C(Nc1cnn(-c2c(F)cccc2F)n1)c1cnccc1C(F)(F)F [Compound I-2-83]	2.36	
O=C(Nc1cnn(-c2ncc(F)cc2F)n1)c1ncccc1C(F)(F)F [Compound I-2-84]	2.28	
O=C(Nc1cnn(-c2ncc(F)cc2F)n1)c1sccc1C(F)(F)F [Compound I-2-85]	2.50	
O=C(Nc1ccn(-c2c(F)cccc2F)c1)c1c(F)cccc1F [Compound I-3-2]	2.68	
O=C(Nc1ccn(-c2c(F)cccc2F)c1)c1ccccc1I [Compound I-3-3]	2.96	
COc1ccc(C(=O)Nc2ccn(-c3c(F)cccc3F)c2)c(Cl)c1 [Compound I-3-4]	2.97	
O=C(Nc1ccn(-c2c(F)cccc2F)c1)c1cccnc1C(F)(F)F [Compound I-3-5]	2.52	

SMILES	log P [1]	other results
O=C(Nc1ccn(-c2c(F)cccc2F)c1)c1occc1I [Compound I-3-6]	2.96	
O=C(Nc1ccn(-c2c(F)cccc2F)c1)c1ccsc1I [Compound I-3-7]	3.07	
O=C(NC1=NN(c2c(F)cccc2F)CC1)c1ccccc1Cl [Compound I-4-1]	2.75	
O=C(NC1=NN(c2c(F)cccc2F)CC1)c1ccccc1Br [Compound I-4-2, 2-Bromo-N-[1-(2,6-difluorophenyl)-4,5-dihydro-1H-pyrazol-3-yl]benzamide]		chromatographic logP [1, 5]: 2.8; pest or weed control at 500 g/ha [2]: 100%
O=C(NC1=NN(c2c(F)cccc2F)CC1)c1c(F)cccc1F [Compound I-4-3]	2.59	
O=C(NC1=NN(c2c(F)cccc2F)CC1)c1ccccc1I [Compound I-4-4]	2.31	
Cc1ccccc1C(=O)NC1=NN(c2c(F)cccc2F)CC1 [Compound I-4-5]	2.21	
Cc1ccccc1C(=O)N(C(=O)c1cccnc1C)C1=NN(c2c(F)cccc2F)CC1 [Compound I-4-6]	4.45	
O=C(NC1=NN(c2c(F)cccc2F)CC1)c1ccccc1C(F)(F)F [Compound I-4-7]	2.34	
O=C(NC1=NN(c2ccccc2Cl)CC1)c1ccccc1Br [Compound I-4-8]	2.37	
O=C(Nc1nn(-c2ncc(F)cc2F)c2ccc(F)cc12)c1ccccc1C(F)(F)F [Compound I-5-2, N-[1-(3,5-Difluoropyridin-2-yl)-5-fluoro-1H-indazol-3-yl]-2-(trifluoromethyl)benzamide]		chromatographic logP [1, 5]: 3.37
O=C(Nc1nn(-c2ncc(F)cc2F)c2ccccc12)c1ccccc1Br [Compound I-5-3]	3.09	
O=C(Nc1nn(-c2ncccc2F)c2ccccc12)c1ccccc1Br [Compound I-5-4]	2.67	
O=C(Nc1nn(-c2ncc(C(F)(F)F)cc2Cl)c2ccccc12)c1ccccc1Br [Compound I-5-5]	3.98	
O=C(Nc1nn(-c2cc(F)cnc2F)c2ccccc12)c1ccccc1Br [Compound I-5-6]	3.05	
O=C(Nc1nn(-c2cc(F)cnc2F)c2ccc(F)cc12)c1ccccc1C(F)(F)F [Compound I-5-7]	3.39	
O=C(Nc1nn(-c2ccccc2Cl)c2ccccc12)c1ccccc1C(F)(F)F [Compound I-5-8, N-[1-(2-Chlorophenyl)-1H-indazol-3-yl]-2-(trifluoromethyl)benzamide]		chromatographic logP [1, 5]: 3.54
O=C(Nc1nn(-c2ccccc2Cl)c2ccccc12)c1cccnc1C(F)(F)F [Compound I-5-9]	3.11	
N#Cc1cc(F)c(-n2nc(NC(=O)c3ccccc3C(F)(F)F)c3c(F)cccc32)cc1F [Compound I-5-10]	3.26	
N#Cc1cc(F)c(-n2nc(NC(=O)c3c(F)cccc3F)c3c(F)cccc32)cc1F [Compound I-5-11]	2.99	
Nc1cnn(-c2ncc(F)cc2F)n1 [Ex.45-V, 2-(3,5-Difluoropyridin-2-yl)-2H-1,2,3-triazole-4-amine]		chromatographic logP [1, 5]: 0.65
Nc1cnn(-c2c(F)cccc2F)n1 [Ex. 21-IX, 2-(2,6-Difluorophenyl)-2H-1,2,3-triazole-4-amine]		chromatographic logP [1]: 1.16
Fc1cccc(F)c1-n1cccc1 [Ex. 46-I, 1-(2,6-Difluorophenyl)-1H-pyrrole]		chromatographic logP [1, 5]: 2.98
O=[N+]([O-])c1ccn(-c2c(F)cccc2F)c1 [Ex. 46-II, 1-(2,6-Difluorophenyl)-3-nitro-M-pyrrole]	2.58	
O=C(Nc1cc[nH]n1)c1ccccc1C(F)(F)F [N-(1H-Pyrazol-3-yl)-2-(trifluoromethyl)benzamide]		chromatographic logP [1, 5]: 1.33
CC(=O)Nc1ccn(-c2c(F)cccc2F)n1 [N-[1-(2,6-Difluorophenyl)-1H-pyrazol-3-yl]acetamide]		chromatographic logP [1]: 1.33
CC(=O)NC1=NN(c2c(F)cccc2F)CC1 [N-[1-(2,6-Difluorophenyl)-4,5-dihydro-1H-pyrazol-3-yl]acetamide]		chromatographic logP [1]: 1.46
